Results as given in patent US20250032506A1, “GLUCOCORTICOID RECEPTOR BLOCKADE WITH MIFEPRISTONE TO SENSITIZE PANCREATIC CANCER TO IMMUNOTHERAPY” (BOARD OF REGENTS, THE UNIVERSITY OF TEXAS SYSTEM, priority 2021, published 2025).
Residues, ends and D or L forms follow the SMILES beside them. *: point of attachment. Cbz = O=C(OCc1ccccc1)*

B1: IFNγ: IFNγ (known to activate PD-L1 transcription) (protein, UniProt P01579 24-161, looked up)
Interferon gamma: QDPYVKEAENLKKYFNAGHSDVADNGTLFLGILKNWKEESDRKIMQSQIVSFYFKLFKNFKDDQSIQKSVETIKEDMNVKFFNSNKKKRDDFEKLTNYSVTDLNVQRKAIHELIQVMAELSPAAKTGKRKRSQMLFRG

Columns and labels:
SU86.86 cells = test: qPCR, immunoblotting and flow cytometry of PD-L1 and MHC-I pathway expression in SU86.86 cells; assay type: cell-based, human; conditions: immunoblotting, mifepristone 20 μM, 48 h with MG132 (10 μM, 6 h) or chloroquine (20 μM, 4 h)
Experimental: (See Bardeesy, N., et al. supra). The human PDAC cell lines SU86.86 ([…]), SW1990 ([…]), BXPC-3 ([…]), Miapaca-2 ([…]), Capan-1 ([…]), ASPC-1 ([…]), Hs766T ([…]), Colo357/FG ([…]), L3.6PL ([…]), Panc28 ([…]), Capan-2 ([…]), CF-Pac-1 ([…]), Panc3 (sex unknown), Panc1 ([…]), Panc48 (sex unknown), and HPAC ([…]) were from Mien-Chie Hung's lab stock. […] The BXPC-3, Miapaca-2, Capan-1, ASPC-1, Colo357/FG, L3.6PL, Panc28, Capan-2, CF-Pac-1, Panc3, Panc1, Panc48, and HPAC cell lines were cultured in DMEM/F-12 (Corning, 10-092-CV) supplemented with 10% FBS and 1% penicillin/streptomycin. Cells were grown in a humidified incubator with 5% CO2 at 37° C., and low-passage stocks were maintained in a centralized lab cell bank. Short tandem repeat profiling and mycoplasma tests were done by the Cytogenetics and Cell Authentication Core at MD Anderson Cancer Center.
Membranes were blocked with 10% non-fat milk in TBST and incubated with the primary antibody at 4° C. overnight, followed by incubation with the secondary antibody conjugated with horseradish peroxidase (HRP).

[1] = test system: human PD-L1, HLA-B, HLA-C, and B2M gene promoter regions; test: Luciferase reporter assay in SU86.86 cells; assay type: cell-based; conditions: IFNγ 10 ng ml^−1, 8 h, abrogated by knockdown of GR
From the text: (§1) Human PD-L1 promoter-reporter constructs (Coelho, M. A., et al. Oncogenic RAS Signaling Promotes Tumo Immunoresistance by Stabilizing PD-L1 mRNA. Immunity 47, 1083-1099 e1086 (2017)) were purchased from Addgene (Addgene numbers: 107002, 107003, 107004, 107006, and 107007). The GR activity reporter plasmid was purchased from Qiagen (ID: C82DB0D7-3D10-4B1C-A358-411558D2DE01). The promoter regions of human HLA-B, HLA-C, and B2M were PCR-amplified from genomic DNA of the SU86.86 cell line (PCR primers are listed as SEQ ID NOs.: 1-6. The linearized pGL3-basic plasmid was amplified by PCR (Forward primer SEQ ID NO: 7; reverse primer SEQ ID NO: 8), and PCR products of promoter regions were ligated to linearized pGL3-basic using the In-Fusion HD Cloning Kit (Takara Bio, 638909).
(§2) The firefly luciferase reporter containing the human gene promoter was co-transfected with a Renilla luciferase vector (for normalization) into SU86.86 cells using jetPRIME transfection reagent (VWR, 89129-922). […] Firefly and Renilla luciferase activities were measured using a Dual-Luciferase Reporter Assay (Promega, E1910) on a microplate reader according to the manufacturer's protocol. Firefly luciferase activity was normalized to Renilla luciferase activity.

[2] = test system: human PD-L1 gene promoter regions; test: Luciferase reporter assay in SW1990 cells; assay type: cell-based; conditions: IFNγ 10 ng ml^−1, 8 h, abrogated by knockdown of GR
From the text: as §1, §2

Row | Molecule | effect on mifepristone-mediated PD-L1 downregulation and MHC-I upregulation (SU86.86 cells) | activity of the PD-L1 promoter reporters [1] | activity of the PD-L1 promoter reporters [2]
1 | CCN(CC)CCCC(C)Nc1ccnc2cc(Cl)ccc12 (stereo not shown) [chloroquine] | did not affect | – | –
2 | CC(C)C[C@@H](C=O)NC(=O)[C@H](CC(C)C)NC(=O)[C@H](CC(C)C)NC(=O)OCc1ccccc1 [MG132] (Cbz-Leu-Leu-Leu-aldehyde) | did not affect | – | –
3 | B1 | – | induced | induced
